Experimental data: patent US3941842A, “P,P'-Disubstituted α-trichloromethylbenzylanilines” (priority 1972, dated 1976)
Several values for one entry are separate records, joined by “and”; a condition that tells them apart may be missing. Equal values may be shown once.

System: Anopheles albimanus larvae
Test: LC50 to Anopheles albimanus larvae
Assay type: in vivo, Anopheles albimanus Weid
Details: not given
Source text: (§1) World Health Org. 363 (1971). […] Food Chem. 1145 (1970). […] Sci. Tech. 709 (1971). The results are detailed in Table II. ##SPC1##

Row | Structure (SMILES) | LC50 Anopheles albimanus larvae [ppm]
1 | COc1ccc(NC(c2ccc(OC)cc2)C(Cl)(Cl)Cl)cc1 (centres unmarked) [Compound II] | 0.64
2 | COc1ccc(NC(c2ccc(N(C)C)cc2)C(Cl)(Cl)Cl)cc1 (centres unmarked) [XXV] | 1.0
3 | COc1ccc(NC(c2ccc(C)cc2)C(Cl)(Cl)Cl)cc1 (centres unmarked) [Compound X] | 0.48
4 | COc1ccc(C(Nc2ccc(C3CCCCC3)cc2)C(Cl)(Cl)Cl)cc1 (centres unmarked) [XXVII] | > 1.0
5 | CCOc1ccc(NC(c2ccccc2)C(Cl)(Cl)Cl)cc1 (centres unmarked) [XIX] | 0.61
6 | CCOc1ccc(NC(c2ccc3c(c2)OCO3)C(Cl)(Cl)Cl)cc1 (centres unmarked) [Compound XVII] | 0.25

System: Phormia regina
Test: whole plant or invertebrate
Details: Phormia regina, topical, read-out: Topical LD50, Phormia regina, Alone
Method: The compounds of the present invention were tested for insecticidal activity by standard methods, and compared with the insecticidal activities of DDT and symmetrical analogs of DDT, such methoxychlor. Toxicological methods for the determination of the topical LD50 values to adult female SNAIDM and RSP houseflies, Musca domestica L. and to Phormia regina, and LC50 values to Culex pipiens quinquefasciatus Say, and Anopheles albimanus Weid mosquitoes were described by Metcalf el al., 44 Bull. World Health Org. […] The methods for evaluation of metabolism by mouse liver homogenate and by female RSP housefly and salt-marsh caterpillar larvae Estigmene acrea Drury, were described by Kapoor et al., 18 J. Agr. […] The techniques for model eocsystem evluation were described by Metcalf et al., 5 J. Environ. Sci. Tech.
(§2) Since piperonyl butoxide serves to block the action of MFO, the synergized LD50 values express the intrinsic toxicity of the compounds. With the detoxifying action of MFO enzymes blocked, the intrinsic toxicity of the compounds can thus be measured.

Row | Structure (SMILES) | LD50 [mg/kg]
7 | COc1ccc(NC(c2ccc(OC)cc2)C(Cl)(Cl)Cl)cc1 (centres unmarked) [Compound II] | 118
8 | COc1ccc(NC(c2ccc(N(C)C)cc2)C(Cl)(Cl)Cl)cc1 (centres unmarked) [XXV] | > 250
9 | COc1ccc(NC(c2ccc(C)cc2)C(Cl)(Cl)Cl)cc1 (centres unmarked) [Compound X] | 135
10 | COc1ccc(C(Nc2ccc(C3CCCCC3)cc2)C(Cl)(Cl)Cl)cc1 (centres unmarked) [XXVII] | > 250
11 | CCOc1ccc(NC(c2ccccc2)C(Cl)(Cl)Cl)cc1 (centres unmarked) [XIX] | > 250
12 | CCOc1ccc(NC(c2ccc3c(c2)OCO3)C(Cl)(Cl)Cl)cc1 (centres unmarked) [Compound XVII] | > 250

Same assay, conditions: synergistic ratio: LD50 alone/LD50 synergized with piperonyl butoxide

Row | Structure (SMILES) | SR, Phormia regina
13 | COc1ccc(NC(c2ccc(C)cc2)C(Cl)(Cl)Cl)cc1 (centres unmarked) [Compound X] | 9.6
14 | CCOc1ccc(NC(c2ccc3c(c2)OCO3)C(Cl)(Cl)Cl)cc1 (centres unmarked) [Compound XVII] | > 7.7

Same assay, conditions: synergized with piperonyl butoxide; topical

Row | Structure (SMILES) | Topical LD50, Phormia regina, with pb [μg per g]
15 | COc1ccc(NC(c2ccc(OC)cc2)C(Cl)(Cl)Cl)cc1 (centres unmarked) [Compound II] | 35.0
16 | COc1ccc(NC(c2ccc(N(C)C)cc2)C(Cl)(Cl)Cl)cc1 (centres unmarked) [XXV] | 85.0
17 | COc1ccc(NC(c2ccc(C)cc2)C(Cl)(Cl)Cl)cc1 (centres unmarked) [Compound X] | 14.0
18 | COc1ccc(C(Nc2ccc(C3CCCCC3)cc2)C(Cl)(Cl)Cl)cc1 (centres unmarked) [XXVII] | 112.5
19 | CCOc1ccc(NC(c2ccccc2)C(Cl)(Cl)Cl)cc1 (centres unmarked) [XIX] | > 250
20 | CCOc1ccc(NC(c2ccc3c(c2)OCO3)C(Cl)(Cl)Cl)cc1 (centres unmarked) [Compound XVII] | 32.5

Same assay, conditions: with piperonyl butoxide

Row | Structure (SMILES) | synergism in Phormia (in words)
21 | COc1ccc(NC(c2ccc(OC)cc2)C(Cl)(Cl)Cl)cc1 (centres unmarked) [Compound II] | substantially synergized in Phormia

System: Culex fatigans larvae
Test: LC50 to Culex fatigans larvae
Assay type: in vivo, Culex pipiens quinquefasciatus Say
Details: not given
Source text: as §1

Row | Structure (SMILES) | LC50 Culex fatigans larvae [ppm]
22 | COc1ccc(NC(c2ccc(OC)cc2)C(Cl)(Cl)Cl)cc1 (centres unmarked) [Compound II] | > 1.0
23 | COc1ccc(NC(c2ccc(N(C)C)cc2)C(Cl)(Cl)Cl)cc1 (centres unmarked) [XXV] | 0.70
24 | COc1ccc(NC(c2ccc(C)cc2)C(Cl)(Cl)Cl)cc1 (centres unmarked) [Compound X] | 0.54
25 | COc1ccc(C(Nc2ccc(C3CCCCC3)cc2)C(Cl)(Cl)Cl)cc1 (centres unmarked) [XXVII] | 1.0
26 | CCOc1ccc(NC(c2ccccc2)C(Cl)(Cl)Cl)cc1 (centres unmarked) [XIX] | > 1.0
27 | CCOc1ccc(NC(c2ccc3c(c2)OCO3)C(Cl)(Cl)Cl)cc1 (centres unmarked) [Compound XVII] | 0.23

System: Musca domestica (SNAIDM and RSP strains), Phormia regina, Culex fatigans and Anopheles albimanus
Test: Insecticidal activity over the test insects (Table II, summarised in words)
Assay type: in vivo
Details: overall, test insects of Table II
Method: (§3) The compounds of the present invention were tested for insecticidal activity by standard methods, and compared with the insecticidal activities of DDT and symmetrical analogs of DDT, such methoxychlor. Toxicological methods for the determination of the topical LD50 values to adult female SNAIDM and RSP houseflies, Musca domestica L. and to Phormia regina, and LC50 values to Culex pipiens quinquefasciatus Say, and Anopheles albimanus Weid mosquitoes were described by Metcalf el al., 44 Bull. World Health Org. 363 (1971). The methods for evaluation of metabolism by mouse liver homogenate and by female RSP housefly and salt-marsh caterpillar larvae Estigmene acrea Drury, were described by Kapoor et al., 18 J. Agr. Food Chem. 1145 (1970). The techniques for model eocsystem evluation were described by Metcalf et al., 5 J. Environ. Sci. Tech. 709 (1971).
as §2

Row | Structure (SMILES) | insecticidal effectiveness / toxicity (in words)
28 | COc1ccc(NC(c2ccc(OC)cc2)C(Cl)(Cl)Cl)cc1 (centres unmarked) [Compound II] | very low toxicity
29 | COc1ccc(NC(c2ccc(N(C)C)cc2)C(Cl)(Cl)Cl)cc1 (centres unmarked) [XXV] | Toxicity was also substantially decreased
30 | COc1ccc(C(Nc2ccc(C3CCCCC3)cc2)C(Cl)(Cl)Cl)cc1 (centres unmarked) [XXVII] | Toxicity was also substantially decreased
31 | CCOc1ccc(NC(c2ccccc2)C(Cl)(Cl)Cl)cc1 (centres unmarked) [XIX] | Toxicity was greatly decreased

Same assay, conditions: synergism by piperonyl butoxide

Row | Structure (SMILES) | SR values (in words)
32 | COc1ccc(NC(c2ccc(C)cc2)C(Cl)(Cl)Cl)cc1 (centres unmarked) [Compound X] | higher SR values

System: Musca domestica Rsp
Test: Topical LD50 to adult female RSP houseflies
Details: Musca domestica, topical, read-out: Topical LD50, Musca domestica Rsp, Alone
Method: as §3, §2

Row | Structure (SMILES) | LD50 [mg/kg]
33 | COc1ccc(NC(c2ccc(OC)cc2)C(Cl)(Cl)Cl)cc1 (centres unmarked) [Compound II] | 500
34 | COc1ccc(NC(c2ccc(N(C)C)cc2)C(Cl)(Cl)Cl)cc1 (centres unmarked) [XXV] | > 500
35 | COc1ccc(NC(c2ccc(C)cc2)C(Cl)(Cl)Cl)cc1 (centres unmarked) [Compound X] | 65
36 | COc1ccc(C(Nc2ccc(C3CCCCC3)cc2)C(Cl)(Cl)Cl)cc1 (centres unmarked) [XXVII] | > 500
37 | CCOc1ccc(NC(c2ccccc2)C(Cl)(Cl)Cl)cc1 (centres unmarked) [XIX] | > 500
38 | CCOc1ccc(NC(c2ccc3c(c2)OCO3)C(Cl)(Cl)Cl)cc1 (centres unmarked) [Compound XVII] | 35.5

Same assay, conditions: RSP strain; synergized with piperonyl butoxide; topical

Row | Structure (SMILES) | Topical LD50, Musca domestica Rsp, with pb [μg per g]
39 | COc1ccc(NC(c2ccc(OC)cc2)C(Cl)(Cl)Cl)cc1 (centres unmarked) [Compound II] | 13.5
40 | COc1ccc(NC(c2ccc(N(C)C)cc2)C(Cl)(Cl)Cl)cc1 (centres unmarked) [XXV] | 13.5
41 | COc1ccc(NC(c2ccc(C)cc2)C(Cl)(Cl)Cl)cc1 (centres unmarked) [Compound X] | 7.5
42 | COc1ccc(C(Nc2ccc(C3CCCCC3)cc2)C(Cl)(Cl)Cl)cc1 (centres unmarked) [XXVII] | 165
43 | CCOc1ccc(NC(c2ccccc2)C(Cl)(Cl)Cl)cc1 (centres unmarked) [XIX] | 120
44 | CCOc1ccc(NC(c2ccc3c(c2)OCO3)C(Cl)(Cl)Cl)cc1 (centres unmarked) [Compound XVII] | 11.0

Same assay, conditions: synergistic ratio: LD50 alone/LD50 synergized with piperonyl butoxide

Row | Structure (SMILES) | SR, Musca domestica Rsp
45 | COc1ccc(NC(c2ccc(OC)cc2)C(Cl)(Cl)Cl)cc1 (centres unmarked) [Compound II] | 37 and > 37
46 | COc1ccc(NC(c2ccc(N(C)C)cc2)C(Cl)(Cl)Cl)cc1 (centres unmarked) [XXV] | > 37
47 | COc1ccc(NC(c2ccc(C)cc2)C(Cl)(Cl)Cl)cc1 (centres unmarked) [Compound X] | 8.7
48 | COc1ccc(C(Nc2ccc(C3CCCCC3)cc2)C(Cl)(Cl)Cl)cc1 (centres unmarked) [XXVII] | > 3
49 | CCOc1ccc(NC(c2ccccc2)C(Cl)(Cl)Cl)cc1 (centres unmarked) [XIX] | > 4
50 | CCOc1ccc(NC(c2ccc3c(c2)OCO3)C(Cl)(Cl)Cl)cc1 (centres unmarked) [Compound XVII] | 3.2

System: Musca domestica Snaidm
Test: Topical LD50 to adult female SNAIDM houseflies
Details: Musca domestica, topical, read-out: Topical LD50, Musca domestica Snaidm, Alone
Method: as §3, §2

Row | Structure (SMILES) | LD50 [mg/kg]
51 | COc1ccc(NC(c2ccc(OC)cc2)C(Cl)(Cl)Cl)cc1 (centres unmarked) [Compound II] | > 500
52 | COc1ccc(NC(c2ccc(N(C)C)cc2)C(Cl)(Cl)Cl)cc1 (centres unmarked) [XXV] | 310
53 | COc1ccc(NC(c2ccc(C)cc2)C(Cl)(Cl)Cl)cc1 (centres unmarked) [Compound X] | 48
54 | COc1ccc(C(Nc2ccc(C3CCCCC3)cc2)C(Cl)(Cl)Cl)cc1 (centres unmarked) [XXVII] | > 500
55 | CCOc1ccc(NC(c2ccccc2)C(Cl)(Cl)Cl)cc1 (centres unmarked) [XIX] | > 500
56 | CCOc1ccc(NC(c2ccc3c(c2)OCO3)C(Cl)(Cl)Cl)cc1 (centres unmarked) [Compound XVII] | 19.5

Same assay, conditions: SNAIDM strain; synergized with piperonyl butoxide; topical

Row | Structure (SMILES) | Topical LD50, Musca domestica Snaidm, with pb [μg per g]
57 | COc1ccc(NC(c2ccc(OC)cc2)C(Cl)(Cl)Cl)cc1 (centres unmarked) [Compound II] | 5.5
58 | COc1ccc(NC(c2ccc(N(C)C)cc2)C(Cl)(Cl)Cl)cc1 (centres unmarked) [XXV] | 16.0
59 | COc1ccc(NC(c2ccc(C)cc2)C(Cl)(Cl)Cl)cc1 (centres unmarked) [Compound X] | 8.5
60 | COc1ccc(C(Nc2ccc(C3CCCCC3)cc2)C(Cl)(Cl)Cl)cc1 (centres unmarked) [XXVII] | 48
61 | CCOc1ccc(NC(c2ccccc2)C(Cl)(Cl)Cl)cc1 (centres unmarked) [XIX] | 31.0
62 | CCOc1ccc(NC(c2ccc3c(c2)OCO3)C(Cl)(Cl)Cl)cc1 (centres unmarked) [Compound XVII] | 3.8

Same assay, conditions: synergistic ratio: LD50 alone/LD50 synergized with piperonyl butoxide

Row | Structure (SMILES) | SR, Musca domestica Snaidm
63 | COc1ccc(NC(c2ccc(OC)cc2)C(Cl)(Cl)Cl)cc1 (centres unmarked) [Compound II] | 100 and > 100
64 | COc1ccc(NC(c2ccc(N(C)C)cc2)C(Cl)(Cl)Cl)cc1 (centres unmarked) [XXV] | 19.4
65 | COc1ccc(NC(c2ccc(C)cc2)C(Cl)(Cl)Cl)cc1 (centres unmarked) [Compound X] | 5.6
66 | COc1ccc(C(Nc2ccc(C3CCCCC3)cc2)C(Cl)(Cl)Cl)cc1 (centres unmarked) [XXVII] | > 10
67 | CCOc1ccc(NC(c2ccccc2)C(Cl)(Cl)Cl)cc1 (centres unmarked) [XIX] | > 16
68 | CCOc1ccc(NC(c2ccc3c(c2)OCO3)C(Cl)(Cl)Cl)cc1 (centres unmarked) [Compound XVII] | 5.1
